Results on three compounds are retold here after US5681816A, “Method of inducing temporary paralysis of the gastrointestinal tract during medical procedure” (priority 1994, dated 1997).

Like-named read-outs stand apart in the source and are kept apart here.

For data set [1] the following is noted: for blood pressure and pulse: first patient. The method, then:
During the period of observation, vital signs (blood pressure and pulse) and symptoms were continuously recorded. The protocol was such that if the blood pressure dropped by more than 20 mm Hg systolic or diastolic or the pulse increased by more than 30 beats per minute for 2 minutes, intravenous saline was to be administered and the study terminated.

The conditions of data set [2]: in vivo; cited from earlier work.
Data set [3] concerns rat and guinea pig isolated midcolon sections. The following applies: cited from earlier work.
The subject of data set [4] is isolated human ileum. The following applies: all frequencies tested; cited from earlier work.
The subject of data set [5] is gastroduodenal motility. The following applies: cited from earlier work.
For data set [6] the following is noted: in vivo; cited from earlier work. The source holds these as a separate data set.
Data set [7] deals with opossum duodenum. To be noted: cited from earlier work.
Where [8] appears, read: 1 mg intravenously followed by 2 mg IV over 2 hours.

As to `CC[C@H](C)[C@H](NC(=O)[C@H](CO)NC(=O)[C@H](CC(N)=O)NC(=O)[C@H](CC(C)C)NC(=O)[C@H](Cc1ccc(O)cc1)NC(=O)[C@H](CCCCN)NC(=O)[C@H](CCCCN)NC(=O)[C@@H](NC(=O)[C@H](C)NC(=O)[C@H](CCSC)NC(=O)[C@H](CCC(N)=O)NC(=O)[C@H](CCCCN)NC(=O)[C@H](CCCN=C(N)N)NC(=O)[C@H](CC(C)C)NC(=O)[C@H](CCCN=C(N)N)NC(=O)[C@@H](NC(=O)[C@H](Cc1ccc(O)cc1)NC(=O)[C@H](CC(N)=O)NC(=O)[C@H](CC(=O)O)NC(=O)[C@@H](NC(=O)[C@H](Cc1ccccc1)NC(=O)[C@@H](NC(=O)[C@H](C)NC(=O)[C@H](CC(=O)O)NC(=O)[C@H](CO)NC(=O)[C@@H](N)Cc1c[nH]cn1)C(C)C)[C@@H](C)O)[C@@H](C)O)C(C)C)C(=O)N[C@@H](CC(C)C)C(=O)N[C@@H](CC(N)=O)C(N)=O` [VIP, vasoactive intestinal peptide], the “blood pressure and pulse” value was “slight decrease in systolic pressure and increase in pulse” in data set [1] (5 ng VIP per kg); “these effects on blood pressure and pulse were not seen” in data set [1] (higher dose level (20 ng/kg)). The “blood pressure or pulse” value in data set [1] (second patient, any of the dosages tested) is “no significant change”; in data set [1] (third patient, any dose), “no significant change”. The “effect on blood pressure” value in data set [1] (summary statement) is “without a significant effect”. Further, the “adverse reactions such as nausea or vomiting” value in data set [1] (three patients) is “None of the three patients studied experienced any adverse reactions”.
Consider `CN1[C@@H]2CC[C@H]1C[C@@H](OC(=O)C(CO)c1ccccc1)C2` (stereo partly drawn) [atropine], for which the “beneficial effects during endoscopies (patient tolerance, facilitation of endoscopy)” value in data set [2] is given as “failed to demonstrate any beneficial effects”. Besides, the ascending contractions entry in data set [3] (all grades of stretch) is reported as “strongly inhibits”. For the same compound, the descending relaxation entry in data set [3] is reported as “no effect”. In addition, the “response to electrical field stimulation” value in data set [4] is given as “primary relaxation”.
On to glucagon, for which, in data set [5] (setting [8]), the “cycle length and time between contractile activity in the duodenum” value is reported as “significantly increased”; the mean pressure period entry was “decreased”. In addition, the “contractions in the antrum” value in data set [5] (doses as high as 2 mg) is listed as “does not reduce contractions”. Moreover, in data set [5] (in vivo), the colonoscopic evaluation result is “does not facilitate”, the gastroduodenal motility result is reported as “variable reduction” and the “minimally effective dose for reduction in gastroduodenal motility” value is reported as 0.5 mg. In data set [6], the “dose at which nausea and vomiting can appear” value is 1 mg. In data set [7], the “effect on opossum duodenum” value is on record as “stimulated relaxation”.
